Data as given in patent US20240308992A1 (Biopolar Youtang(Guangdong) Pharmaceutical Co., Ltd., priority 2021, published 2024).

Each compound was assayed against T1, Drak2 (Homo sapiens, UniProt O94768) (assay: Drak2 activity test, ADP-Glo kinase assay (Promega)). Conditions: inhibition of Drak2 kinase activity, 2 h room temperature, activity range classes, read-out: IC50_Drak2.
T1 sequence (O94768 1-372): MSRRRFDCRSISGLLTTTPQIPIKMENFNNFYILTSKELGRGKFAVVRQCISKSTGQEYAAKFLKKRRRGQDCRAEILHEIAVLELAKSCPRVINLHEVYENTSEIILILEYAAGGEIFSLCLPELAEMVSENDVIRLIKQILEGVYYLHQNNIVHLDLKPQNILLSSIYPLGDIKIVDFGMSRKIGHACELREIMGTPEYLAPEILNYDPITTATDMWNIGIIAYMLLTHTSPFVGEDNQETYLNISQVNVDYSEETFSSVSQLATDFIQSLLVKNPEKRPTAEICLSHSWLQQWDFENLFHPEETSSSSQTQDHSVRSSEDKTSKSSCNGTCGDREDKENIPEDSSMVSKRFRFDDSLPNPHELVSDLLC
Format: biochemical

Question: Which IC50 does the source give for CCCCC(=O)Nc1cc(-c2cncc(-c3ccc(S(C)(=O)=O)c(OC)c3)n2)sc1C [Example A45, N-(5-(6-(3-methoxy-4-(methylsulfonyl)phenyl)pyrazin-2-yl)-2-methylthiophen-3-yl)pentanamide] here?
Answer: The IC50 was 1000 to 10000 nM.

Question: How did the IC50 turn out when CCCCC(=O)Nc1csc(-c2cncc(-c3ccc(C(=O)OC)s3)n2)c1 [Example 222, methyl 5-(6-(4-pentamidothiophen-2-yl)pyrazin-2-yl) thiophen-2-carboxylate] was run?
Answer: The IC50 was 101 to 1000 nM.

Question: CCCCCCCC(=O)Nc1csc(-c2cncc(-c3ccc(C(=O)Nc4nnn[nH]4)c(OC)c3)n2)c1 [Example B18, 2-methoxy-4-(6-(4-octanamidothiophen-2-yl)pyrazin-2-yl)-N-(1H-tetrazol-5-yl)benzamide] was tested. Which IC50 did it give?
Answer: Its IC50 is over 10000 nM.

Question: Which IC50 does the source give for CCCCC(=O)Nc1csc(-c2cncc(-c3ccc(C(=O)Nc4cn(C)nc4OC)c(OC)c3)n2)c1 [Example B41, 2-methoxy-N-(3-methoxy-1-methyl-1H-pyrazol-4-yl)-4-(6-(4-pentanamidothiophen-2-yl)pyrazin-2-yl)benzamide] here?
Answer: The IC50 was 101 to 1000 nM.

Question: For CCCCC(=O)Nc1csc(-c2cncc(-c3cc(OC)c(OC)cc3C(N)=O)n2)c1 [Example A26, 4,5-dimethoxy-2-(6-(4-pentanamidothiophen-2-yl)pyrazin-2-yl)benzamide], which IC50 is on record?
Answer: The IC50 was 1000 to 10000 nM.

Question: How did the IC50 turn out when COc1cc(C(N)=O)c(-c2cncc(-c3cc(NC(=O)C4CCC4)cs3)n2)cc1OC [Example A25, 2-(6-(4-(cyclobutanecarboxamido)thiophen-2-yl)pyrazin-2-yl)-4,5-dimethoxybenzamide] was run?
Answer: Its IC50 is over 10000 nM.

Question: For COc1cc(-c2cncc(-c3cc(NC(=O)CC4CC4)cs3)n2)ccc1C(=O)N(C)C1CCN(C)CC1 [Example B60, 4-(6-(4-(2-cyclopropylacetamido)thiophen-2-yl)pyrazin-2-yl)-2-methoxy-N-methyl-N-(1-methylpiperidin-4-yl)benzamide], which IC50 is on record?
Answer: The IC50 was 11 to 100 nM.

Question: COc1cc(-c2cncc(-c3cc(NC(=O)CC45CC(C4)C5)cs3)n2)ccc1C(=O)Nc1nnco1 [Example 204, 4-[6-(4-{[2-(bicyclo [1.1.1]penta-1-yl)acetyl]amino}thiophen-2-yl)pyrazin-2-yl]-2-methoxy-N-(1,3,4-oxadiazol-2-yl) benzamide] was tested. Which IC50 did it give?
Answer: The IC50 was 101 to 1000 nM.

Question: For COc1cc(-c2cncc(-c3cc(NC(=O)CC4CCCC4)cs3)n2)ccc1C(=O)N1CCC(OC)CC1 [Example B54, 2-cyclopentyl-N-(5-(6-(3-methoxy-4-(4-methoxypiperidine-1-carbonyl)phenyl)pyrazin-2-yl)thiophen-3-yl)acetamide], which IC50 is on record?
Answer: The IC50 was 11 to 100 nM.

Question: How did the IC50 turn out when CCCCC(=O)Nc1csc(-c2cncc(-c3ccc(C(=O)N(C)C4CCN(c5cnn(C)c5)CC4)c(OC)c3)n2)c1 [Example B71, 2-methoxy-N-methyl-N-(1-(1-methyl-1H-pyrazol-4-yl)piperidin-4-yl)-4-(6-(4-pentanamidothiophen-2-yl)pyrazin-2-yl)benzamide] was run?
Answer: The IC50 was 11 to 100 nM.

Question: Which IC50 does the source give for CCCCC(=O)Nc1csc(-c2ccnc(-c3ccc(C(=O)N(C)C4CCN(C)CC4)c(OC)c3)n2)c1 [Example D5, 2-methoxy-N-methyl-N-(1-methylpiperidin-4-yl)-4-(4-(4-pentanamidothiophen-2-yl)pyrimidin-2-yl)benzamide] here?
Answer: The IC50 was 1000 to 10000 nM.

Question: For COc1cc(-c2cncc(-c3cc(NC(=O)CC4CC(F)(F)C4)cs3)n2)ccc1C(=O)N(C)C1CCN(C)CC1 [Example B83, 4-(6-(4-(2-(3,3-difluorocyclobutyl)acetamido)thiophen-2-yl)pyrazin-2-yl)-2-methoxy-N-methyl-N-(1-methylpiperidin-4-yl)benzamide], which IC50 is on record?
Answer: Its IC50 is 11 to 100 nM.

Question: How did the IC50 turn out when COc1cc(-c2cncc(-c3cc(NC(=O)CC45CC(C4)C5)cs3)n2)ccc1C(=O)Nc1nnco1 [Example B80, 4-(6-(4-(2-(bicyclo[1.1.1]pentan-1-yl)acetamido)thiophen-2-yl)pyrazin-2-yl)-2-methoxy-N-(1,3,4-oxadiazol-2-yl)benzamide] was run?
Answer: The IC50 was 11 to 100 nM.

Question: How did the IC50 turn out when CCCCC(=O)Nc1csc(-c2cncc(-c3ccc(C(=O)O)c(OC)c3)n2)c1 [Example B2, 2-methoxy-4-(6-(4-pentanamidothiophen-2-yl)pyrazin-2-yl)benzoic acid] was run?
Answer: The IC50 was 11 to 100 nM.

Question: COc1cc(-c2cncc(-c3cc(NC(=O)CC4CCC4)cs3)n2)ccc1OCCN1CCCC1=O [Example 170, 2-Cyclobutyl-N-{5-[6-(3-methoxy-4-{[2-(2-oxotetrahydro-1H-pyrrol-1-yl)ethyl]oxy}phenyl)pyrazin-2-yl]thiophen-3-yl} acetamide] was tested. Which IC50 did it give?
Answer: Its IC50 is 11 to 100 nM.

Question: How did the IC50 turn out when CCCCC(=O)Nc1csc(-c2cncc(-c3ccc4c(c3)OCO4)n2)c1 [Example A23, N-(5-(6-(benzo[d][1,3]dioxol-5-yl)pyrazin-2-yl)thiophen-3-yl)pentanamide] was run?
Answer: The IC50 was 101 to 1000 nM.

Question: How did the IC50 turn out when Cc1nn(C)c2cc(-c3cncc(-c4cc(NC(=O)CC5CCC5)cs4)n3)ccc12 [Example A51, 2-cyclobutyl-N-(5-(6-(1,3-dimethyl-1H-indazol-6-yl)pyrazin-2-yl)thiophen-3-yl)acetamide] was run?
Answer: Its IC50 is 101 to 1000 nM.

Question: Which IC50 does the source give for COc1cc(-c2cncc(-c3cc(NC(=O)CC4CCC4)cs3)n2)ccc1OCCN1CC2(CN(C)C2)C1 [Example 178, 2-cyclobutyl-N-{5-[6-(3-methoxy-4-{[2-(6-methyl-2,6-diazaspiro [3.3]hept-2-yl)ethyl]oxy}phenyl)pyrazin-2-yl]thiophen-3-yl} acetamide] here?
Answer: Its IC50 is 11 to 100 nM.

Question: For CCCCC(=O)Nc1csc(-c2cncc(-c3ccc(C(=O)N4CCN(C)CC4)c(OC)c3)n2)c1 [Example B37, N-(5-(6-(3-methoxy-4-(4-methylpiperazine-1-carbonyl)phenyl)pyrazin-2-yl)thiophen-3-yl)pentanamide], which IC50 is on record?
Answer: Its IC50 is 11 to 100 nM.

Question: For COc1cc(-c2cncc(-c3cc(NC(=O)CC4CCCCC4)cs3)n2)ccc1C(=O)Nc1nnn[nH]1 [Example B14, 2-methoxy-4-(6-(4-(2-cyclohexylacetamido)thiophen-2-yl)pyrazin-2-yl)-N-(1H-tetrazol-5-yl)benzamide], which IC50 is on record?
Answer: The IC50 was 101 to 1000 nM.

Question: CCCCC(=O)Nc1csc(-c2cncc(-c3ccc(C(=O)N(C)C4CCN(C(C)C)CC4)c(OC)c3)n2)c1 [Example B68, N-(1-isopropylpiperidin-4-yl)-2-methoxy-N-methyl-4-(6-(4-pentanamidothiophen-2-yl)pyrazin-2-yl)benzamide] was tested. Which IC50 did it give?
Answer: The IC50 was under 10 nM.

Question: With CCCCC(=O)Nc1csc(-c2cncc(-c3ccc(C4(O)COC4)c(OC)c3)n2)c1 [Example A35, N-(5-(6-(4-(3-hydroxyoxetan-3-yl)-3-methoxyphenyl)pyrazin-2-yl)thiophen-3-yl)pentanamide] as the compound, how does the IC50 read?
Answer: Its IC50 is 11 to 100 nM.

Question: How did the IC50 turn out when COc1cc(-c2cncc(-c3cc(NC(=O)CC4CC4)cs3)n2)ccc1C(=O)N1CCN(C)CC1 [Example B38, 2-cyclopropyl-N-(5-(6-(3-methoxy-4-(4-methylpiperazine-1-carbonyl)phenyl)pyrazin-2-yl)thiophen-3-yl)acetamide] was run?
Answer: The IC50 was 11 to 100 nM.

Question: Which IC50 does the source give for CCCCC(=O)Nc1csc(-c2cncc(-c3cc(OC)cc(OC)c3)n2)c1 [Example A18, N-(5-(6-(3,5-dimethoxyphenyl)pyrazin-2-yl)thiophen-3-yl)pentanamide] here?
Answer: Its IC50 is 101 to 1000 nM.

Question: How did the IC50 turn out when COc1cc(-c2cncc(-c3cc(NC(=O)CC4CCC4)cs3)n2)ccc1OCCN1CCN(C)CC1 [Example 173, 2-cyclobutyl-N-{5-[6-(3-methoxy-4-{[2-(4-methylpiperazin-1-yl)ethyl]oxy}phenyl)pyrazin-2-yl]thiophen-3-yl}acetamide] was run?
Answer: Its IC50 is 11 to 100 nM.

Question: Which IC50 does the source give for COc1cc(-c2cncc(-c3cc(NC(=O)CC4CCCC4)cs3)n2)ccc1C(=O)N1CCOCC1 [Example B33, 2-cyclopentyl-N-(5-(6-(3-methoxy-4-(morpholine-4-carbonyl)phenyl)pyrazin-2-yl)thiophen-3-yl)acetamide] here?
Answer: Its IC50 is 11 to 100 nM.

Question: COc1cc(-c2cncc(-c3cc(NC(=O)CC4CCC4)cs3)n2)ccc1C(=O)N1CCOCC1 [Example B32, 2-cyclobutyl-N-(5-(6-(3-methoxy-4-(morpholine-4-carbonyl)phenyl)pyrazin-2-yl)thiophen-3-yl)acetamide] was tested. Which IC50 did it give?
Answer: Its IC50 is 11 to 100 nM.

Question: CCCCCCC(=O)Nc1csc(-c2cncc(-c3ccc(OC)c(OC)c3)n2)c1 [Example A30, N-(5-(6-(3,4-dimethoxyphenyl)pyrazin-2-yl)thiophen-3-yl)heptanamide] was tested. Which IC50 did it give?
Answer: Its IC50 is over 10000 nM.

Question: How did the IC50 turn out when CCCCCC(=O)Nc1csc(-c2cncc(-c3ccc(C(=O)Nc4nnn[nH]4)c(OC)c3)n2)c1 [Example B16, 2-methoxy-4-(6-(4-hexanamidothiophen-2-yl)pyrazin-2-yl)-N-(1H-tetrazol-5-yl)benzamide] was run?
Answer: The IC50 was 101 to 1000 nM.

Question: COc1ccc(-c2cncc(-c3cc(NC(=O)C(C)C)cs3)n2)cc1OC [Example A4, N-(5-(6-(3,4-dimethoxyphenyl)pyrazin-2-yl)thiophen-3-yl)isobutyramide] was tested. Which IC50 did it give?
Answer: Its IC50 is 101 to 1000 nM.

Question: For COc1cc(-c2cncc(-c3cc(NC(=O)CC4CC4)cs3)n2)ccc1C(=O)Nc1nnn[nH]1 [Example B12, 2-methoxy-4-(6-(4-(2-cyclopropylacetamido)thiophen-2-yl)pyrazin-2-yl)-N-(1H-tetrazol-5-yl)benzamide], which IC50 is on record?
Answer: The IC50 was 101 to 1000 nM.

Question: With CCCCC(=O)Nc1csc(-c2cncc(-c3ccc(C(=O)N(C4CC4)C4CCN(C)CC4)c(OC)c3)n2)c1 [Example B76, N-cyclopropyl-2-methoxy-N-(1-methylpiperidin-4-yl)-4-(6-(4-pentanamidothiophen-2-yl)pyrazin-2-yl)benzamide] as the compound, how does the IC50 read?
Answer: Its IC50 is 11 to 100 nM.

Question: With CC(C)n1ncc2ccc(-c3cncc(-c4cc(NC(=O)CC5CCC5)cs4)n3)cc21 [Example 213, 2-Cyclobutyl-N-(5-{6-[1-(propyl-2-yl)indazol-6-yl]pyrazin-2-yl}thiophen-3-yl) acetamide] as the compound, how does the IC50 read?
Answer: Its IC50 is 101 to 1000 nM.

Question: How did the IC50 turn out when COc1cc(-c2cncc(-c3cc(NC(=O)CC4CCCC4)cs3)n2)ccc1C(=O)N(C)CCN(C)C [Example B58, 4-(6-(4-(2-cyclopentylacetamido)thiophen-2-yl)pyrazin-2-yl)-N-(2-(dimethylamino)ethyl)-2-methoxy-N-methylbenzamide] was run?
Answer: Its IC50 is 11 to 100 nM.
